Reference: patent US20220251085A1, “CYSTEINE BINDING COMPOSITIONS AND METHODS OF USE THEREOF” (University of Virginia Patent Foundation, priority 2019, published 2022)

Key:
[1] = HPLC assay for profiling solution reactivity and stability of purine fragments (probes) with amino acid mimetics; type: physicochemical; settings: for reaction with butanethiol: cysteine mimetic
Protocol: HPLC assay for profiling solution reactivity and stability of purine fragments: The following reagents were prepared and stored on ice prior to use. 0.1 molar (M) solution of caffeine in acetonitrile, 1.0 M solution of amino acid mimetic (butanethiol—cysteine mimetic; n-butylamine—lysine mimetic; p-cresol—tyrosine mimetic; propionamide-asparagine/glutamine mimetic; butyric acid—aspartic/glutamic acid mimetic), tetramethylguanidine (TMG), 1 M acetic acid (HOAc) in acetonitrile (ACN) and 10 mM solution of purine fragment in ACN mixture. 500 μL of fragment solution were transferred to a dram vial on ice. To the mixture, 5.5 μL of TMG and 5.5 μL of respective amino acid mimetic were added and solutions were stirred on ice for 6 h. To monitor reactivity, 50 μL aliquots were removed at indicated time points and quenched with 10 μL of a 1:1 mixture of caffeine and HOAc. Samples were injected (1 μL) and analyzed by reverse-phase HPLC on a Shimadzu 1100 Series spectrometer (Shimadzu Corporation, Kyoto, Japan) with UV detection at 254 nm. Reaction progress was evaluated by monitoring consumption of starting material (purine fragment) normalized to caffeine standard. Chromatographic separation was performed using a Phenomenex Kinetex C18 column (2.6 μm, 50×4.6 mm; Phenomenex, Torrance, Calif., United States of America). Mobile phases A and B were composed of H2O+0.1% HOAc and ACN+0.1% HOAc, respectively. […] All purine fragment peak AUCs used for calculations were normalized to caffeine standard AUCs at respective time points to account for run-to-run variations by HPLC. The amount of purine fragment consumed (% starting material) was plotted as a function of time.
Discussion: An HPLC assay for determining the reactivity of the purine-based probes with mimetics of amino acid residues was performed. […] Reaction progress was monitored by monitoring the disappearance of starting material and appearance of product via HPLC.

DM93 cells = test: Live cell activity of purine probes, gel-based (CuAAC rhodamine-azide, in-gel fluorescence); settings: for labeling profile in live cells: DM93 cells, 25 μM, 4 hours
Protocol: Live Cell Activity Method: DM93 cells were grown at 37° C. in 5% CO2 until 90% confluent. Once confluent cells were washed with serum free media and treated with halogenated purine probes at a final concentration of 25 μM (unless stated) for 4 hours (unless stated). Cells were then scraped and washed 3× with cold PBS and lysed in PBS+protease inhibitor. Lysates were spun at 100,000×g for 45 minutes. Halogen probe-modified proteins in soluble fractions were visualized by conjugating rhodamine-azide using copper-catalyzed azide-alkyne cycloaddition (CuAAC; 1 hour, room temperature), subjected to SDS-PAGE, and detected by in-gel fluorescence scanning. SDS-PAGE gels were also stained with Coomassie brilliant blue to determine protein load. All samples were loaded with equivalent amounts of protein. Thus, changes in purine probe labeling is not due to loading of different proteome amounts.

| Structure (SMILES) | solution-based reactivity with amino acid mimetics ([1]; HPLC, % starting material consumed, on ice 6 h) | reaction kinetics compared to N9 counterparts ([1]; butanethiol, versus Pu-2, Pu-4, Pu-10) | reactivity towards nucleophilic attack, N7 versus N9 tautomer ([1]; compared with Pu-2) | reaction with butanethiol ([1]; on ice 6 h) | labeling profile in live cells (DM93 cells) | reactivity of N7 versus N9 tautomers (DM93 cells; live DM93 cells) | concentration dependence of labeling (DM93 cells; live cells) | time dependence of labeling (DM93 cells; live cells) | reactivity with lysine mimetic ([1]; n-butylamine, on ice 6 h) |
| --- | --- | --- | --- | --- | --- | --- | --- | --- | --- |
| C#CCn1cnc2nc(Cl)nc(Cl)c21 [Pu-1, 2,6-Dichloro-7-(prop-2-yn-1-yl)-7H-purine] | modifies cysteine (Cys) and tyrosine (Tyr) amino acid mimetics | accelerated reaction kinetics | more reactive towards nucleophilic attack | react with butanethiol | robust labeling profiles | more reactive | concentration dependent labeling | react in a time dependent manner | – |
| C#CCn1cnc2c(Cl)nc(Cl)nc21 [Pu-2, 2,6-Dichloro-9-(prop-2-yn-1-yl)-9H-purine] | – | – | – | react with butanethiol | robust labeling profiles | – | – | react in a time dependent manner | mild lysine (Lys) reactivity |
